Drawing on patent US11407767B2, “Heterocyclyl substituted pyrrolopyridines that are inhibitors of the CDK12 kinase” (The University of Nottingham, priority 2017, dated 2022), this text covers IC50 for 30 compounds.

Structures can show the parent of a compound that is named as a salt. A value given as a limit tells only on which side of the number the result lay.

CDK12/CycK, sequence (Q9NYV4 whole entry): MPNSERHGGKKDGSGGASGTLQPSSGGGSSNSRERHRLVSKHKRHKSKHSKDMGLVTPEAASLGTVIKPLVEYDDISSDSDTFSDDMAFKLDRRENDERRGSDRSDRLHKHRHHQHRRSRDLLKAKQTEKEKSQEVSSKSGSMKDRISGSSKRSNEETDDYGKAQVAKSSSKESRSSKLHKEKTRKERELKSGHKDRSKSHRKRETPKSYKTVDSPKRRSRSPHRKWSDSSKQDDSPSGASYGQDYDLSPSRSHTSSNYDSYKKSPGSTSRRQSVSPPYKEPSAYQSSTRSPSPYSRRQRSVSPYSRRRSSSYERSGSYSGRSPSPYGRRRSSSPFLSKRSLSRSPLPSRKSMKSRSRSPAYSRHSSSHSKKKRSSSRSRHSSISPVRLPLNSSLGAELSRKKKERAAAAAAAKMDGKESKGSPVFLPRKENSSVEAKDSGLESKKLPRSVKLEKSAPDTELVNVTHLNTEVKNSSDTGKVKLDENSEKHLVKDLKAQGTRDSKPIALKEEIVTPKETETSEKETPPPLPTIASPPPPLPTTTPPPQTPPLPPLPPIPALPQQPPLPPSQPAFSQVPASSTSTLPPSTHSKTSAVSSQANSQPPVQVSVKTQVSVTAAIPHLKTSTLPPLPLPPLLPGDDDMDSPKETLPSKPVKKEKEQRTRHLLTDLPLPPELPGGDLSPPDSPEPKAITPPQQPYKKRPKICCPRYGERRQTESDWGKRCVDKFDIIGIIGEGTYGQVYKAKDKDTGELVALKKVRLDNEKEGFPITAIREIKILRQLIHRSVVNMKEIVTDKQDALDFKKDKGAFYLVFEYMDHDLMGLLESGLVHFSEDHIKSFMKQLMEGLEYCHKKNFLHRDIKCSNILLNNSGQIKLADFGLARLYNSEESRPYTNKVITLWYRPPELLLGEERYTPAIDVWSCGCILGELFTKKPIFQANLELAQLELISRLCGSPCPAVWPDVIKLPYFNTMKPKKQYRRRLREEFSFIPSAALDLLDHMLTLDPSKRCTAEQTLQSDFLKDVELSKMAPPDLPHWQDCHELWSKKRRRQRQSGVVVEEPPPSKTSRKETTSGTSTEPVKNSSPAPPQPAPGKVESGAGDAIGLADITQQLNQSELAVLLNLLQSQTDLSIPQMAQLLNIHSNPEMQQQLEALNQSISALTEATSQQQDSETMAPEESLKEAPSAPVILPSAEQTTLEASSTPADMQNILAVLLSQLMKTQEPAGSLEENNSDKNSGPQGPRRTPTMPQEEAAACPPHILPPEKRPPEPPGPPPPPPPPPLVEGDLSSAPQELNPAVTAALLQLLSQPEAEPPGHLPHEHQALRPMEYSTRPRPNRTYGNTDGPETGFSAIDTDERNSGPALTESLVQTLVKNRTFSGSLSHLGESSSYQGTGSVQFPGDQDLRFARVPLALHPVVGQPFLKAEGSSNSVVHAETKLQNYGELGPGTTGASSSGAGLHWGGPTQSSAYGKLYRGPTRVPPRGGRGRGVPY
CDK12/CycK, sequence (O75909 whole entry partner): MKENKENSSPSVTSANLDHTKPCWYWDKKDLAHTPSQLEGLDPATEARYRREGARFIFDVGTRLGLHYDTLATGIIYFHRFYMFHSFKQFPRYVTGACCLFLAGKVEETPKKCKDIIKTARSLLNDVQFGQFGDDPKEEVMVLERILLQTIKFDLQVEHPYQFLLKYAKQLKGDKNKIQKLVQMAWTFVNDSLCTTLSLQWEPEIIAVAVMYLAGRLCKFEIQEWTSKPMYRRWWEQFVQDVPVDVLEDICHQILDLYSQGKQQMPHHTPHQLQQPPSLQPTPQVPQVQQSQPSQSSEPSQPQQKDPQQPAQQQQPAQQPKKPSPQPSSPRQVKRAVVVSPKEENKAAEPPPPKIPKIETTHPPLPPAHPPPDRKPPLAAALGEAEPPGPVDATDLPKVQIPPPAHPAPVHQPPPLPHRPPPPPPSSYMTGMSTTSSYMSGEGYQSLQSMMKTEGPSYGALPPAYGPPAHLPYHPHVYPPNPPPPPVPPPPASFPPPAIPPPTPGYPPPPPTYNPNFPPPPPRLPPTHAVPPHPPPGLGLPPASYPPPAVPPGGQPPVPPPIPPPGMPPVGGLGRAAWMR

The experiment has as its target CDK12/CycK (Homo sapiens, UniProt Q9NYV4). Put plainly: Inhibition of CDK12 (ADP-Glo kinase assay). The format is biochemical. Conditions: 60 nM CDK12/CycK, 30 minutes pre-incubation, 1 μM ATP, 0.5 μM RBER-IRStide substrate, 1 h at 25° C., read-out: CDK12/cyclin K IC50. The procedure:
Assay buffer comprised 50 mM HEPES pH 7.5, 1 mM DTT, 20 mM MgCl2, 3 mM MnCl2, 3 μM Na3VO4 and 50 μg/ml PEG8000. Kinase reactions were carried out in 384-well Optiplates™ (PerkinElmer 6007299). Test compounds were dissolved & diluted in dimethyl sulfoxide (DMSO) and cross diluted into assay buffer with a final DMSO concentration of 1% (v/v) in the assay. Test compounds (or 1% DMSO in control and blank wells) were pre-incubated with 60 nM CDK12/CycK for 30 minutes. After this time 1 μM Adenosine-5′-triphosphate (ATP) and 0.5 μM RBER-IRStide substrate (ProQinase 0863-0000-1) were added to commence the kinase reaction. Incubations were carried out for 1 h at 25° C. with kinase activity determined using the ADP-Glo™ reagent from Promega according to the manufacturer's instructions. Light generated is proportional to kinase activity and measured using a luminometer (EnVision, PerkinElmer). The signal obtained in the blank wells (containing no kinase) was subtracted from all other wells and IC50 values were determined by fitting a sigmoidal curve to % inhibition of control versus Log10 compound concentration.
For orientation: ADP-Glo first removes unused ATP, then detects ADP through luciferase.
`c1ccc(Cn2cc(-c3ccnc4[nH]ccc34)nn2)cc1` [Example 134, 4-(1-Benzyl-1H-1,2,3-triazol-4-yl)-1H-pyrrolo[2,3-b]pyridine]: the IC50 lay in the range of 1000 to 30000 nM.

`C=CC(=O)N1CCC[C@H]1C(=O)NCCc1cc2c(-c3cnn4ncccc34)c(Cl)cnc2[nH]1` [Example 53, (S)-1-Acryloyl-N-(2-(5-chloro-4-(pyrazolo[1,5-b]pyridazin-3-yl)-1H-pyrrolo[2,3-b]pyridin-2-yl)ethyl)pyrrolidine-2-carboxamide]: the IC50 is less than 100 nM.

As to `COCCC(=O)Nc1ccccc1C(=O)N1CCC(c2cc3c(-c4cnn5ncccc45)ccnc3[nH]2)C1` (stereo not drawn) [Example 163, 3-Methoxy-N-(2-(3-(4-(pyrazolo[1,5-b]pyridazin-3-yl)-1H-pyrrolo[2,3-b]pyridin-2-yl)pyrrolidine-1-carbonyl)phenyl)propanamide Formate Salt], the IC50 is less than 100 nM.

Turning to `CC(C)CNC(=O)c1cc2c(-c3cnn4ncccc34)ccnc2[nH]1` [Example 4, N-Isobutyl-4-(pyrazolo[1,5-b]pyridazin-3-yl)-1H-pyrrolo[2,3-b]pyridine-2-carboxamide], the IC50 lay within 1000 to 30000 nM.

Consider `c1ccn2ncc(-c3ccnc4[nH]ccc34)c2c1` [Example 18, 4-(Pyrazolo[1,5-a]pyridin-3-yl)-1H-pyrrolo[2,3-b]pyridine], for which the IC50 lay within 1000 to 30000 nM.

With `C#CC(=O)Nc1ccc(C(=O)N2CCC(c3cc4c(-c5cnn6ncccc56)ccnc4[nH]3)C2)cc1` (stereo not drawn) [Example 128, N-(4-(3-(4-(Pyrazolo[1,5-b]pyridazin-3-yl)-1H-pyrrolo[2,3-b]pyridin-2-yl)pyrrolidine-1-carbonyl)phenyl)propiolamide], the IC50 was less than 100 nM.

Regarding `O=C(CCl)NCC(=O)N1CCC(c2cc3c(-c4cnn5ncccc45)ccnc3[nH]2)C1` (stereo not drawn) [Example 157, 2-Chloro-N-(2-oxo-2-(3-(4-(pyrazolo[1,5-b]pyridazin-3-yl)-1H-pyrrolo[2,3-b]pyridin-2-yl)pyrrolidin-1-yl)ethyl)acetamide], the IC50 is less than 100 nM.

Regarding `CN(C)C/C=C/C(=O)N1CCC(C(=O)N2CCC(c3cc4c(-c5cnn6ncccc56)ccnc4[nH]3)CC2)CC1` [Example 66, (E)-4-(Dimethylamino)-1-(4-(4-(4-(pyrazolo[1,5-b]pyridazin-3-yl)-1H-pyrrolo[2,3-b]pyridin-2-yl)piperidine-1-carbonyl)piperidin-1-yl)but-2-en-1-one], the IC50 is less than 100 nM.

Regarding `C=CC(=O)N1CCC2(CCCN(Cc3cc4c(-c5cnn6ncccc56)ccnc4[nH]3)C2)C1` (stereo not drawn) [Example 198, 1-(7-((4-(Pyrazolo[1,5-b]pyridazin-3-yl)-1H-pyrrolo[2,3-b]pyridin-2-yl)methyl)-2,7-diazaspiro[4.5]decan-2-yl)prop-2-en-1-one], the IC50 lay within 1000 to 30000 nM.

For the compound `CN1CCN(CC(=O)NCc2cc3c(-c4cnn5ncccc45)ccnc3[nH]2)CC1` [Example 14, 2-(4-Methylpiperazin-1-yl)-N-((4-(pyrazolo[1,5-b]pyridazin-3-yl)-1H-pyrrolo[2,3-b]pyridin-2-yl)methyl)acetamide], the IC50 was in the range of 1000 to 30000 nM.

On to `C=CC(=O)N1CCCC(C(=O)NCCc2cc3c(-c4cnn5ncccc45)ccnc3[nH]2)C1` (stereo not drawn) [Example 75, 1-Acryloyl-N-(2-(4-(pyrazolo[1,5-b]pyridazin-3-yl)-1H-pyrrolo[2,3-b]pyridin-2-yl)ethyl)piperidine-3-carboxamide], for which the IC50 was less than 100 nM.

With `C=CC(=O)NCc1cccc(C(=O)NCc2cc3c(-c4cnn5ncccc45)ccnc3[nH]2)c1` [Example 192, 3-(Acrylamidomethyl)-N-((4-(pyrazolo[1,5-b]pyridazin-3-yl)-1H-pyrrolo[2,3-b]pyridin-2-yl)methyl)benzamide], the IC50 was in the range of 1000 to 30000 nM.

For the compound `c1cncc(Cn2cc(-c3ccnc4[nH]ccc34)nn2)c1` [Example 136, 4-(1-(Pyridin-3-ylmethyl)-1H-1,2,3-triazol-4-yl)-1H-pyrrolo[2,3-b]pyridine], the IC50 lay within 1000 to 30000 nM.

Consider `CN(C)CCNCc1cc2c(-c3cnn4ncccc34)ccnc2[nH]1` [Example 17, N1,N1-Dimethyl-N2-((4-(pyrazolo[1,5-b]pyridazin-3-yl)-1H-pyrrolo[2,3-b]pyridin-2-yl)methyl)ethane-1,2-diamine], for which the IC50 fell in the range of 1000 to 30000 nM.

On to `C=CC(=O)N[C@H]1CC[C@H](C(=O)NCc2cc3c(-c4cnn5ncccc45)ccnc3[nH]2)CC1` [Example 191, (1r,4r)-4-Acrylamido-N-((4-(pyrazolo[1,5-b]pyridazin-3-yl)-1H-pyrrolo[2,3-b]pyridin-2-yl)methyl)cyclohexane-1-carboxamide], for which the IC50 lay within 1000 to 30000 nM.

As for `C=CC(=O)N1CCO[C@@H](C(=O)NCCc2cc3c(-c4cnn5ncccc45)ccnc3[nH]2)C1` (single isomer, unassigned) [Example 61], the IC50 was less than 100 nM.

`C=CC(=O)N1CCC[C@H]1C(=O)NCCc1cc2c(-c3ccnn3C)ccnc2[nH]1` [Example 51, (S)-1-Acryloyl-N-(2-(4-(1-methyl-1H-pyrazol-5-yl)-1H-pyrrolo[2,3-b]pyridin-2-yl)ethyl)pyrrolidine-2-carboxamide]: the IC50 lay in the range of 1000 to 30000 nM.

Regarding `COCCOc1cnn2ncc(-c3ccnc4[nH]ccc34)c2c1` [Example 24, 5-(2-Methoxyethoxy)-3-(1H-pyrrolo[2,3-b]pyridin-4-yl)pyrazolo[1,5-b]pyridazine], the IC50 was in the range of 1000 to 30000 nM.

Take `COCCNC(=O)c1cc2c(-c3cnn4ncccc34)ccnc2[nH]1` [Example 3, N-(2-Methoxyethyl)-4-(pyrazolo[1,5-b]pyridazin-3-yl)-1H-pyrrolo[2,3-b]pyridine-2-carboxamide]: the IC50 is 1000 to 30000 nM.

With `C=CC(=O)N1CCC[C@@H]1C(=O)N1CCC(c2cc3c(-c4cnn5ncccc45)ccnc3[nH]2)CC1` [Example 195, (R)-1-(2-(4-(4-(pPyrazolo[1,5-b]pyridazin-3-yl)-1H-pyrrolo[2,3-b]pyridin-2-yl)piperidine-1-carbonyl)pyrrolidin-1-yl)prop-2-en-1-one], the IC50 is less than 100 nM.

For the compound `Nc1cccc(-c2cc3c(-c4cnn5ncccc45)ccnc3[nH]2)c1` [Example 114, 3-(4-(Pyrazolo[1,5-b]pyridazin-3-yl)-1H-pyrrolo[2,3-b]pyridin-2-yl)aniline], the IC50 was less than 100 nM.

As for `CN1CCN(Cc2cc3c(-c4cnn5ncccc45)ccnc3[nH]2)CC1` [Example 16, 3-(2-((4-Methylpiperazin-1-yl)methyl)-1H-pyrrolo[2,3-b]pyridin-4-yl)pyrazolo[1,5-b]pyridazine], the IC50 lay within 100 to 1000 nM.

In the case of `C=CC(=O)Nc1ccc(C(=O)N(C)Cc2cc3c(-c4cnn5ncccc45)ccnc3[nH]2)cc1` [Example 185, 4-Acrylamido-N-methyl-N-((4-(pyrazolo[1,5-b]pyridazin-3-yl)-1H-pyrrolo[2,3-b]pyridin-2-yl)methyl)benzamide], the IC50 was less than 100 nM.

As for `C=CC(=O)N1CCC[C@H](C(=O)N(C)CCc2cc3c(-c4cnn5ncccc45)ccnc3[nH]2)C1` [Example 48, (S)-1-Acryloyl-N-methyl-N-(2-(4-(pyrazolo[1,5-b]pyridazin-3-yl)-1H-pyrrolo[2,3-b]pyridin-2-yl)ethyl)piperidine-3-carboxamide], the IC50 lay in the range of 100 to 1000 nM.

With `C=CC(=O)Nc1cccc(C(=O)N2CC[C@@H](c3cc4c(-c5cnn6ncccc56)ccnc4[nH]3)C2)c1` (single isomer, unassigned) [Example 149, N-(3-(3-(4-(Pyrazolo[1,5-b]pyridazin-3-yl)-1H-pyrrolo[2,3-b]pyridin-2-yl)pyrrolidine-1-carbonyl)phenyl)acrylamide], the IC50 was less than 100 nM.

In the case of `C=CC(=O)N1CCC(C(=O)N2CCC(c3cc4c(-c5cnn6ncccc56)ccnc4[nH]3)C2)CC1` (stereo not drawn) [Example 143, 1-(4-(3-(4-(Pyrazolo[1,5-b]pyridazin-3-yl)-1H-pyrrolo[2,3-b]pyridin-2-yl)pyrrolidine-1-carbonyl)piperidin-1-yl)prop-2-en-1-one], the IC50 was less than 100 nM.

Regarding `CC(C)=C(C#N)C(=O)N1CCC[C@H]1C(=O)NCCc1cc2c(-c3cnn4ncccc34)ccnc2[nH]1` [Example 202, (S)-1-(2-Cyano-3-methylbut-2-enoyl)-N-(2-(4-(pyrazolo[1,5-b]pyridazin-3-yl)-1H-pyrrolo[2,3-b]pyridin-2-yl)ethyl)pyrrolidine-2-carboxamide], the IC50 fell in the range of 1000 to 30000 nM.

Take `C=CC(=O)Nc1ccc(C(=O)N2CC[C@@H](c3cc4c(-c5cnn6ncccc56)ccnc4[nH]3)C2)cc1` (single isomer, unassigned) [Example 148, N-(4-(3-(4-(Pyrazolo[1,5-b]pyridazin-3-yl)-1H-pyrrolo[2,3-b]pyridin-2-yl)pyrrolidine-1-carbonyl)phenyl)acrylamide]: the IC50 was less than 100 nM.

As to `OCC(O)COc1cnn2ncc(-c3ccnc4[nH]ccc34)c2c1` (stereo not drawn) [Example 131, 3-((3-(1H-Pyrrolo[2,3-b]pyridin-4-yl)pyrazolo[1,5-b]pyridazin-5-yl)oxy)propane-1,2-diol], the IC50 lay within 1000 to 30000 nM.

Consider `C=CC(=O)N1CCC[C@H](C(=O)N2CCC(c3cc4c(-c5cnn6ncccc56)ccnc4[nH]3)C2)C1` (stereo partly drawn) [Example 206, 1-((3S)-3-(3-(4-(Pyrazolo[1,5-b]pyridazin-3-yl)-1H-pyrrolo[2,3-b]pyridin-2-yl)pyrrolidine-1-carbonyl)piperidin-1-yl)prop-2-en-1-one], for which the IC50 was less than 100 nM.
